Measured values from patent US20110183948A1, “TREATMENT OF FIBROTIC CONDITIONS USING HEDGEHOG INHIBITORS” (INFINITY PHARMACEUTICALS, INC., priority 2010, published 2011).
Values joined by “and” are separate entries in the source; they are usually repeats but may differ in a detail not shown here. Identical values can stand only once. “Also recorded” adds a separate entry of the source.

Experiments:
[1] = system: pulmonary fibrosis induced by bleomycin; assay: Example 2B bleomycin-induced pulmonary fibrosis: hydroxyproline; type: in vivo, C57BL/6 mice; conditions: treatment begun on the day of bleomycin insult
Experimental: (§1) Experimental conditions used in this study are similar to the ones described in Example 2A. […] Mice were treated with bleomycin (BLM) on day 0 and controls received saline (SAL).

[2] = Example 2B bleomycin-induced pulmonary fibrosis: body weight and survival; type: in vivo, C57BL/6 mice
Experimental: as §1
The effects of IPI-926 in body weight and survival that accompany bleomycin insult are shown in FIGS. 15 and 16, respectively.

[3] = system: Sonic Hedgehog (SHh) and Gli-1; assay: Immunohistochemistry of lung samples from the bleomycin lung fibrosis study for SHh and Gli-1; type: in vivo, C57BL/6 mice
Experimental: I. IHC protocol to detect Gli1 on murine and human tissues: Rabbit anti-mouse Gli1 (Novus Biologicals NBP1-03294), Whole Rabit IgG2 Positive control: RMS, BCC
• 1. Dilute the Gli1, 1:200, in DaVinci Green Diluent. Add ratIgG2a, at same dilution, to the negative controls. Add a volume of 300 μl to each slide. • 2. Incubate for 1.5 hours at room temperature.
Rabbit anti-human SHh (Abcam# ab53281). Isotype control: Whole Rabbit IgG Positive control: Pancreatic xenograft Secondary: Rabbit-on-Rodent Polymer (Biocare Medical RMR622) for xenografts or Mach 2 (Biocare Medical RHRP520) for human tissue Wash buffer: PBS+0.5% Tween Citrate Retrieval buffer DaVinci Green Primary Ab diluent (Biocrae Medical PD900) DAB Enhancer (Zymed Cat. No. 00-2021)
• 1. Dilute the SHH, 1:2000 (optimized on the DAKO autostainer), in DaVinci Green Diluent. Add RabbitIgG, at same dilution, to the negative controls. Add a volume of 300 μl to each slide. • 2. Incubate for 90 minutes at room temperature.

[4] = system: experimental liver metastasis; assay: Mouse model of experimental liver metastasis; type: in vivo; conditions: prophylactic administration
[5] = system: white blood cells in bronchiolar lavage fluid; assay: Bleomycin-induced pulmonary fibrosis model (INF-01): bronchiolar lavage fluid cell counts; type: in vivo, C57BL/6 mice; design: Bronchiolar lavage fluid counts WBC: unit not given here; conditions: for Bronchiolar lavage fluid counts % lymph / Bronchiolar lavage fluid counts % monos / Bronchiolar lavage fluid counts % neutro / Bronchiolar lavage fluid counts WBC: individual animals
Experimental: (§2) Thirty-two C57/B6 mice were prospectively randomized into four equally sized groups of eight animals each. An additional four mice served as naïve controls. Pulmonary fibrosis was induced with a single dose of bleomycin (4 U/kg) given intra-nasally on Day 0. Animals' activity and weight were evaluated daily. IPI 926 or vehicle was given every other day from 10 days prior to bleomycin until sacrifice on Day 30, or IPI926 was given beginning on either Day 0 or Day 14 on alternate days until the end of the study. At the end of the study on Day 30, all mice were euthanized and bronchiolar lavage performed to enable an evaluation of the inflammatory infiltrate in the lungs and collect the fluid for possible cytokine evaluation. One lung from each animal was collected for histology, while the other was snap frozen and retained for possible additional analyses.
At necropsy, the inflammatory infiltrated was evaluated by counting cells in the fluid collected following bronchiolar lavage. Bronchiolar lavage was performed by inserting a 20-gauge cannula into the trachea, which was tied in place with suture. The cannula was attached to a 1 mL syringe which was used to deliver and then recover 1 mL of sterile PBS. This fluid was then centrifuged to recover the cells and the resulting fluid saved for potential evaluation. Cell counts were performed on a HTI PCE-90vet automated veterinary hematology analyzer.
At sacrifice, BAL fluids were collected from all animals. The cells from these fluids were evaluated for differential white count. The fluids were retained for cytokine analysis.

[6] = Bleomycin-induced pulmonary fibrosis model in C57BL/6 mice (study INF-01): body weight and survival; type: in vivo
Experimental: as §2
Bleomycin, a glycopeptides anti-cancer agent originally isolated from Streptomyces verticillus is currently approved for use against squamous cell carcinoma, testicular cancer and Hodgkin's disease. Pulmonary fibrosis is a significant toxicity associated with the use of bleomycin, occurring in a significant percentage of patients undergoing bleomycin therapy. In C57/B6 mice, pulmonary inflammation and subsequent fibrosis is reproducible following bleomycin treatment, and the severity of pulmonary fibrosis is dose-dependent with higher doses being used to evaluate short term inflammatory effects, while lower doses are used to study the longer term impact of pulmonary fibrosis. In this model, mice are given 4 U/kg of bleomycin intranasally and pulmonary fibrosis is evaluated histologically 30 days after the administration of the bleomycin.
Oral administration by gavage QOD for 30 days 40 mg/kg Administered volume varies by weight
Thirty-six (36) female C57B1/6 mice (Charles River Laboratories), aged 5 to 6 weeks, with a mean body weight of 19.7 g at study commencement, were used. Animals were individually numbered using an ear punch and housed in groups of eight animals per cage. Animals were acclimatized for 3 days prior to study commencement. During acclimatization, the animals were observed daily in order to reject animals that presented in poor condition.
Pulmonary fibrosis was induced with a single intra-nasal administration of bleomycin at 4 U/kg in 25 μL of saline. Animals were anesthetized by breathing isoflurane in a closed chamber (2-3% isoflurane 200-300 mls oxygen) to effect. When non-responsive to toe pinch, each animal was held in one hand in an upright position and the bleomycin placed in nares and the droplet watched until inhaled. […]
Animals were weighed and evaluated for respiratory distress daily. […]
All animals were weighed and evaluated for respiratory distress daily throughout this study. […]

[7] = Group 2: Qod, Day −10 to Day 30
[8] = groups Day 0 to 30 or Day 14 to 30
[9] = Group 3: Qod, Day 0 to Day 30, individual animals

CC1=C2C[C@H]3[C@@H](CC[C@@H]4C[C@H](NS(C)(=O)=O)CC[C@@]43C)[C@@H]2CC[C@@]2(C1)O[C@@H]1C[C@H](C)CN[C@H]1[C@H]2C [IPI-926]
fibrosis as ug of hydroxproline per g of animal body weight [1]: reduces the fibrosis caused by bleomycin | animal death / survival after bleomycin administration [2]: significantly abrogates the increase in animal death | body weight loss that accompanies bleomycin insult [2]: reduces the dramatic loss in body weight | SHh immunoreactivity ([3]; d=−10, d=0, d=14): only IPI-926 administered at d=−10 appeared to have an effect on this signal | Gli-1 immunoreactivity in comparison to vehicle treatment ([3]; d=−10, d=0 and d=14): appears to decrease the Gli-1 immunoreactivity | metastatic spread and survival [4]: dramatic effects on metastatic spread and survival | mean lymphocytes in bronchiolar lavage fluid ([5]; Day −10 to 30): 41% | mean monocytes in bronchiolar lavage fluid ([5]; Day −10 to 30): 1.5% | mean neutrophils in bronchiolar lavage fluid ([5]; Day −10 to 30): 48% | mean WBC count in bronchiolar lavage fluid ([5]; Day −10 to Day 30): 1.53 ×10^6 cells/μL | mean WBC count in bronchiolar lavage fluid ([5]; Days 0-30): 1.09 ×10^6 cells/μL | mean WBC count in bronchiolar lavage fluid ([5]; Days 14-20 (so in the source)): 0.79 ×10^6 cells/μL | Bronchiolar lavage fluid counts % lymph [5, 7]: 43% and 44% (2×) and 41% and 26% and 46% | Bronchiolar lavage fluid counts % monos [5, 7]: 4% (2×) and 6% (2×) and 8% and 3% | Bronchiolar lavage fluid counts % neutro [5, 7]: 43% and 41% and 48% and 60% and 49% and 47% | Bronchiolar lavage fluid counts WBC [5, 7]: 0.6 and 1.3 and 2.1 (2×) and 1.9 and 1.2 | Bronchiolar lavage fluid counts % lymph ([5]; Group 3: Qod, Day 0 to Day 30): 41% and 45% and 46% (2×) and 40% and 56% and 51% and 49% | Bronchiolar lavage fluid counts % monos ([5]; Group 3: Qod, Day 0 to Day 30): 4% (4×) and 3% (2×) and 7% and 5% | Bronchiolar lavage fluid counts % neutro ([5]; Group 3: Qod, Day 0 to Day 30): 43% and 47% and 44% and 52% and 41% and 34% and 42% and 45% | Bronchiolar lavage fluid counts WBC ([5]; Group 3: Qod, Day 0 to Day 30): 1.3 (3×) and 0.1 and 0.9 and 1.5 and 1.1 and 1.2 | Bronchiolar lavage fluid counts % lymph ([5]; Group 4: Qod, Day 14 to Day 30): 51% and 53% and 54% and 42% and 55% and 46% and 45% and 49% | Bronchiolar lavage fluid counts % monos ([5]; Group 4: Qod, Day 14 to Day 30): 3% (3×) and 9% and 4% and 1% and 2% and 11% | Bronchiolar lavage fluid counts % neutro ([5]; Group 4: Qod, Day 14 to Day 30): 42% and 28% and 41% and 50% and 35% and 49% and 43% and 45% | Bronchiolar lavage fluid counts WBC ([5]; Group 4: Qod, Day 14 to Day 30): 1.1 (2×) and 0.9 (3×) and 0.4 (2×) and 0.6 | white cell count in bronchiolar lavage ([5]; all groups treated, greatest in Day 14 to Day 30 group): reductions in the number of white cells in the bronchiolar lavage; also recorded: Reductions in white cell count | mean lymphocytes in bronchiolar lavage fluid [5, 8]: 47-49% | mean neutrophils in bronchiolar lavage fluid [5, 8]: 42-44% | Daily Animal Weights, Day 14 [6, 9]: 21.09 | Daily Animal Weights, Day 27 [6, 9]: 21.09 | animals that died or were euthanized ([6]; group treated from Day −10 to Day 30): sac'd | weight gain relative to vehicle controls ([6]; mouse, in vivo): reductions in weight gain relative to vehicle controls
